Measurements as given in the NIST ThermoML archive (doi:10.1016/j.jct.2007.11.013).

Assay: xn = mol fraction of the nth substance listed
Details: Liquid, Bellows volumetry

CC(C)C [2-methylpropane] + CCCC
mass density [kg/m3]
Details	280 K	320 K	360 K	400 K	440 K
1000 kPa, x2 = 0.2656	580.73	530.15	–	–	–
1000 kPa, x2 = 0.4913	585.41	535.84	–	–	–
1000 kPa, x2 = 0.7508	589.56	541.44	–	–	–
2000 kPa, x2 = 0.2656	582.43	532.88	469.97	–	–
2000 kPa, x2 = 0.4913	586.92	538.41	478.17	–	–
2000 kPa, x2 = 0.7508	590.9	543.79	–	–	–
3000 kPa, x2 = 0.2656	583.92	535.39	475.52	–	–
3000 kPa, x2 = 0.4913	588.36	540.81	483.1	385.11	–
3000 kPa, x2 = 0.7508	592.32	546.12	490.53	402.2	–
5000 kPa, x2 = 0.2656	587.09	540.14	484.88	406.75	–
5000 kPa, x2 = 0.4913	591.12	545.4	491.8	417.26	–
5000 kPa, x2 = 0.7508	594.99	550.35	498.56	427.6	–
10000 kPa, x2 = 0.2656	593.89	550.53	502.82	446.63	376.07
10000 kPa, x2 = 0.4913	597.45	555.38	508.78	453.53	384.46
10000 kPa, x2 = 0.7508	601.36	559.85	514.37	460.33	393.12
20000 kPa, x2 = 0.2656	605.71	567.26	527.7	485.47	441.9
20000 kPa, x2 = 0.4913	608.98	571.45	532.51	490.78	447.31
20000 kPa, x2 = 0.7508	612.32	575.19	537.18	495.66	452.37
30000 kPa, x2 = 0.2656	615.41	580.65	545.48	509.52	474.54
30000 kPa, x2 = 0.4913	618.89	584.41	549.98	514.15	479.02
30000 kPa, x2 = 0.7508	621.81	587.77	554.09	518.42	483.18
40000 kPa, x2 = 0.2656	624.41	591.82	559.82	527.48	497.07
40000 kPa, x2 = 0.4913	627.45	595.5	563.9	531.91	501.25
40000 kPa, x2 = 0.7508	630.16	598.52	567.64	535.63	504.89
50000 kPa, x2 = 0.2656	632.48	601.55	571.85	542.19	514.8
50000 kPa, x2 = 0.4913	635.21	605.01	575.77	546.27	518.55
50000 kPa, x2 = 0.7508	637.79	607.82	579.14	549.67	521.88
60000 kPa, x2 = 0.2656	639.66	610.3	582.32	554.58	529.25
60000 kPa, x2 = 0.4913	642.4	613.74	586.24	558.4	532.82
60000 kPa, x2 = 0.7508	644.7	616.38	589.35	561.67	535.99
70000 kPa, x2 = 0.2656	646.31	618.47	591.65	565.35	541.79
70000 kPa, x2 = 0.4913	648.87	621.47	595.42	569.18	545.18
70000 kPa, x2 = 0.7508	650.96	623.97	598.27	572.18	548.23
80000 kPa, x2 = 0.2656	652.53	625.51	599.96	575	552.55
80000 kPa, x2 = 0.4913	654.98	628.69	603.53	578.67	556.07
80000 kPa, x2 = 0.7508	656.95	631.01	606.56	581.7	558.93
90000 kPa, x2 = 0.2656	658.15	632.18	607.66	583.7	562.49
90000 kPa, x2 = 0.4913	660.76	635.21	611.18	587.47	565.64
90000 kPa, x2 = 0.7508	662.63	637.49	613.96	590.11	568.41
100000 kPa, x2 = 0.2656	663.68	638.57	614.79	591.48	571.02
100000 kPa, x2 = 0.4913	666.14	641.34	618.14	595.11	574.54
100000 kPa, x2 = 0.7508	667.99	643.48	620.9	598.02	577.23
120000 kPa, x2 = 0.2656	673.84	649.73	627.56	605.85	586.73
120000 kPa, x2 = 0.4913	675.91	652.68	630.84	609.08	590.02
120000 kPa, x2 = 0.7508	677.69	654.79	633.4	611.77	592.51
140000 kPa, x2 = 0.2656	682.73	660.13	638.86	618.11	600.22
140000 kPa, x2 = 0.4913	685.03	662.76	642.02	621.57	603.26
140000 kPa, x2 = 0.7508	686.69	664.53	644.56	623.93	605.8
160000 kPa, x2 = 0.2656	691.28	669.26	649.01	628.97	612.2
160000 kPa, x2 = 0.4913	693.26	672	652.16	632.55	615.27
160000 kPa, x2 = 0.7508	694.86	673.62	654.38	634.89	617.59
180000 kPa, x2 = 0.2656	699.06	677.76	658.15	639.19	622.95
180000 kPa, x2 = 0.4913	700.72	680.38	661.25	642.45	625.93
180000 kPa, x2 = 0.7508	702.34	681.89	663.57	644.7	628.15
200000 kPa, x2 = 0.2656	706.05	685.47	666.71	648.34	632.67
200000 kPa, x2 = 0.4913	708	687.99	669.76	651.4	635.69
200000 kPa, x2 = 0.7508	709.43	689.51	672.02	653.9	637.8
